Laboratory results published in patent US7763652B2, “Prostaglandin derivatives” (Taisho Pharmaceutical Co., Ltd., priority 2002, dated 2010).

Test system: male cynomolgus monkeys
Assay: Sleep-inducing test by cisternal administration
Type: in vivo
Conditions: cisternal infusion; for Sleep time: sleep time over three hours after administration, four male cynomolgus monkeys; for Number of slept animals: three hours after administration
Procedure: Sleep-Inducing Test by Cisternal Administration
Four male cynomolgus monkeys weighing 2.0-3.5 kg were individually placed in cages. The behaviors of the respective animals were recorded by videotape from one hour before drug administration to three hours after drug administration. Compound 16 was dissolved in physiological saline solution and sterilized using a Minipore filter. The drug was cisternally infused into the monkeys anesthetized with isoflurane inhalation. The dose was 10 μg/0.1 ml per monkey and 100 μg/0.1 ml per monkey. The same dose of the vehicle was infused cisternally to the control group. The test schedule was carried out according to the following protocol.
Week 1: Group treated with vehicle
Week 2: Group treated with 10 μg of Compound 16/monkey
Week 3: Group treated with 100 μg of Compound 16/monkey
The sleep times at three hours after administration were determined by playing back the recorded videotape and measuring the times (second) during which the animals relaxed with their both eyes closed, which are shown in Table 2.

O=C(O)C#CCCSCC1C(Cl)CC(O)C1C#CC(O)C1CCCCC1 (stereo not drawn) [Compound 16, 9-Deoxy-9β-chloro-16,17,18,19,20-pentanor-15-cyclohexyl-2,2,3,3,13,14-hexadehydro-6-thia-PGF1α]
Sleep time (10 μg/0.1 ml per monkey): 293 s
Number of slept animals (10 μg/0.1 ml per monkey): 3/4
Sleep time (100 μg/0.1 ml per monkey): 1734 s
Number of slept animals (100 μg/0.1 ml per monkey): 4/4
